Measured values: ChEMBL document CHEMBL3352047, “Hybrids of phenylsulfonylfuroxan and coumarin as potent antitumor agents” (J Med Chem, 2014)
The source made the active and inactive calls. No cut-off for these calls is given here.

Columns and labels:
[1] = tested on: A2780; experiment: Antiproliferative activity against human A2780 cells after 48 hrs by MTT assay; conditions: A2780, 48 h
[2] = Antiproliferative activity against human A2780/CDDP cells after 48 hrs by MTT assay
[3] = tested on: A549; experiment: cells; conditions: Homo sapiens, A549, 48 h
[4] = tested on: HeLa; experiment: cells; conditions: Homo sapiens, 48 h
[5] = tested on: HUVEC; experiment: cells; conditions: Homo sapiens, 48 h
Description: Antiproliferative activity against HUVEC after 48 hrs by MTT assay

[6] = Antiproliferative activity against human T29 cells after 48 hrs by MTT assay; conditions: T29, 48 h
[7] = tested on: MDA-MB-231; experiment: Antiproliferative activity against human MDA-MB-231 cells after 48 hrs by MTT assay; conditions: MDA-MB-231, 48 h
[8] = tested on: MDA-MB-231; experiment: Antiproliferative activity against gemcitabine-resistant human MDA-MB-231 cells after 48 hrs by MTT assay; conditions: MDA-MB-231, 48 h
[9] = tested on: A2780; experiment: Induction of nitric oxide generation in human A2780 cells at 100 to 1000 nM after 1 hr by DAF-FM DA staining-based assay; format: functional, cell-based
[10] = tested on: A2780; experiment: Induction of nitric oxide generation in human A2780 cells at 100 uM after 150 mins by Griess assay; format: functional

Compound | IC50 [1] | IC50 [3] | IC50 [4] | IC50 [7] | IC50 [8] | IC50 [2] | IC50 [5] | IC50 [6] | Activity [9] | Activity [10]
Cc1cc(=O)oc2cc(NCCOc3no[n+]([O-])c3S(=O)(=O)c3ccccc3)ccc12 | 2450 nM | 1440 nM | 1990 nM |  |  | 5450 nM | 3040 nM |  |  | 
COCCOc1no[n+]([O-])c1S(=O)(=O)c1ccccc1 | > 2000 nM |  |  |  |  |  |  | > 2000 nM |  | 
Cc1cc(=O)oc2cc(OCC(=O)OCCOc3no[n+]([O-])c3S(=O)(=O)c3ccccc3)ccc12 | 3650 nM | 6920 nM | 4310 nM |  |  | 7360 nM | > 20000 nM |  |  | 
Nc1ccn([C@@H]2O[C@H](CO)[C@@H](O)C2(F)F)c(=O)n1 [GEMCITABINE] |  |  |  | 25 nM | > 10000 nM |  |  |  |  | 
Cc1cc(=O)oc2cc(O)ccc12 [HYMECROMONE] | > 2000 nM |  |  |  |  |  |  | > 2000 nM |  | 
CCOC(=O)N1CCN(/[N+]([O-])=N/Oc2ccc([N+](=O)[O-])cc2[N+](=O)[O-])CC1 | 630 nM | 1260 nM | 3560 nM |  |  | 1050 nM | 5390 nM |  | Active | 48 µM

More lines, in order of falling IC50 [1], values ahead:

IC50 [1] | IC50 [3] | IC50 [4] | IC50 [7] | IC50 [8] | Compound | IC50 [2] | IC50 [5] | IC50 [6] | Activity [9] | Activity [10]
350 nM | 280 nM | 260 nM |  |  | Cc1cc(=O)oc2cc(OCCCOc3no[n+]([O-])c3S(=O)(=O)c3ccccc3)ccc12 | 360 nM | 680 nM |  |  | 
170 nM | 260 nM | 110 nM |  |  | O=c1ccc2ccc(OCCOc3no[n+]([O-])c3S(=O)(=O)c3ccccc3)cc2o1 | 200 nM | 370 nM |  |  | 
130 nM | 3290 nM | > 20000 nM |  |  | CCc1cc(=O)c2ccc(Oc3no[n+]([O-])c3S(=O)(=O)c3ccccc3)cc2o1 | 2990 nM | 3350 nM |  |  | 
46 nM | 1000 nM | 250 nM |  |  | Cc1cc(=O)oc2c(C)c(OCCOc3no[n+]([O-])c3S(=O)(=O)c3ccccc3)ccc12 | 330 nM | 97 nM |  |  | 
36 nM | 120 nM | 24 nM |  |  | Cc1cc(=O)oc2cc(SCCOc3no[n+]([O-])c3S(=O)(=O)c3ccccc3)ccc12 | 140 nM | 220 nM |  |  | 
